Reference: article PMC3975964, “Protective effect of a sesamin derivative, 3-bis (3-methoxybenzyl) butane-1, 4-diol on ischemic and hypoxic neuronal injury” (Journal of Biomedical Science, 2014)

Key:
[1] = test system: superoxide dismutase (SOD) activity; test: SOD activity of ischemic brain; type: in vivo, Sprague–Dawley rats; conditions: SD rat brain, BBD 10 mg/kg i.p. 90 min after MCAO
Method: Twenty-four male Sprague–Dawley (SD) rats (200~250 gm) were purchased from National Animal Center, Taipei, Taiwan and randomly divided into the control (normal saline), and BBD groups. The experiment was approved by Institutional Animal Care and Use Committee, Taichung Veterans General Hospital (IACUC LA-97490). Rats were injected intraperitoneally (i.p.) with BBD (10 mg/kg) 90 min after MACO experiment. Each SD rat was anesthetized with chlorohydrate (400 mg/kg) i.p. and its body temperature was maintained at 37°C with a heating pad (CMA/150). A midline neck incision was made and the right carotid artery was exposed and separated from the vago-sympathetic trunk. The right carotid artery was loosely encircled with a 4-O suture for later occlusion. The SD rat’s head was placed in a stereotaxic frame (David Kopf, CA, USA) with the nose bar positioned 4.0 mm below the horizontal line. Following a midline incision, the skull was partially removed to expose the right middle cerebral artery. The middle cerebral artery was loosely encircled with an 8-O suture for later occlusion. A focal cerebral ischemia was induced by occlusion of the right common carotid artery and the right cerebral artery (MCAO) for 60 min, followed by reperfusion. […]
Superoxide dismutase (SOD) activity was determined by a Superoxide Dismutase assay kit (Cayman, Ann Arbor, MI, USA). […]

ERK [2] = test: Western blot of hypoxia-induced signaling, BV-2: ERK; type: cell-based, murine; conditions: BV-2 cells, 10 min hypoxia, BBD 20 μM
Method: (§1) On the day of experiment, culture media were replaced with glucose-free DMEM, then, gassed with 85% N2, 10% H2, and 5% CO2 for various time periods in the absence or presence of various doses of BBD.
(§2) Samples containing 25 μg of protein were separated on 12.5% (w/v) sodium dodecyl sulfate-polyacrylamide gels, and transferred to immobilon polyvinylidenedifluoride membranes (Millipore, Bedford, USA). The membranes were incubated for 2 h with 5% (w/v) dry skim milk in TBST buffer to block non-specific binding, then ERK, p38 JNK, AKT-1, COX-2, caspase-3, β-actin proteins for neuron cells were detected by a chemiluminescence detection system according to the manufacturer’s instructions (ECL, Amersham, Berkshire, UK).

ERK [3] = test: Western blot of hypoxia-induced signaling, PC12: ERK; type: cell-based, rat; conditions: PC12 cells, 10 min hypoxia (Figure 5C), BBD 20 μM
Method: as §1, §2

COX-2 = test: Western blot of hypoxia-induced signaling, PC12: COX-2; type: cell-based, rat; conditions: PC12 cells, 10 min hypoxia (Figure 5C), BBD 20 μM
Method: as §1, §2

SMILES: COc1cccc(CC(CO)C(CO)Cc2cccc(OC)c2)c1 (centres unmarked) [BBD, 3-bis (3-methoxybenzyl) butane-1,4-diol]
- increase of SOD activity as compared to the ischemia group [1]: 24%
- SOD activity ([1]; ischemia group 68 μ/mL): 84 μ/mL
- reduced expression of ERK (ERK [2]): 10 ± 7%
- suppressed hypoxia induced expression of ERK (ERK [3]): 9 ± 7%
- suppressed hypoxia induced expression of COX-2 (COX-2): 75 ± 11%
